Test results reported in patent US20250163043A1 (TRANSTHERA SCIENCES (NANJING), INC., priority 2021, published 2025).

How the values were obtained:
Type in all cases: biochemical
CDK9/CycT1 = CDK9/CycT1 (Homo sapiens, UniProt P50750); assay: ADP-Glo kinase assay on CDK enzymatic activity, CDK9/CycT1; conditions: 10 concentrations from 10 μM, 4-fold, 60 min room temperature
Procedure, shortened: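 Ten-point, 4-fold dilution series from 10 μM final was preincubated 10 min with kinase, then 60 min at room temperature with CDKtide substrate and ATP. ADP-Glo luminescence gave inhibition relative to 1 μM AZD4573 and 0.5% DMSO controls; IC50 from curve fitting.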

CDK2/CycA2 = CDK2/CycA2 (Homo sapiens, UniProt P24941); assay: ADP-Glo kinase assay on CDK enzymatic activity, CDK2/CycA2; conditions: 10 concentrations from 10 μM, 4-fold, 60 min room temperature
Source text: (§1) Test samples: the compounds of the present invention, having structures shown above.
(§2) ADP-Glo Kinase Assay (ADP-Glo kinase kit), DMSO (dimethyl sulfoxide), CDK9/CycT1 (cyclin-dependent kinase 9/cyclin T1), CDK tide (cyclin-dependent kinase substrate peptide fragments), CDK1/CycE1 (cyclin-dependent kinase 1/cyclin E1), CDK2/CycA2 (cyclin-dependent kinase 2/cyclin A2), CDK3/CycE1 (cyclin-dependent kinase 3/cyclin E1), CDK4/CycD3 (cyclin-dependent kinase 4/cyclin D3), CDK5/p25NCK (cyclin-dependent kinase 5/p25), and AZD 4573.
(§3) A 384-well white plate, a 96-well plate, a microplate oscillator, a centrifuge, and a microplate reader.
(§4) The compounds were dissolved in DMSO and diluted 4-fold in the 96-well plate to obtain stock solutions with 10 concentration gradients, and added into a 384-well plate system to obtain a series of 10 concentration gradients of compound solutions with final concentrations of 10 μM starting and 4-fold gradient decreasing. 1 μM AZD4573 was used as compound positive control (PC) and 0.5% DMSO as solvent vehicle control (VC), ten duplicated wells each for PC and VC.
(§5) 1 μL of compound solution and 2 μL of 2× kinase solution were transferred to each well, and the plate was centrifuged at 1000 g for 30 s and left at room temperature for 10 min. A mixture of 2× substrate and ATP was prepared in 1× kinase buffer. The reaction was started after adding 2 μL of substrate and ATP into the plate. The plate was centrifuged at 1000 g for 30 s. The assay plate was closed and left at room temperature for 60 min. The reaction system was added with 4 μL of ADP Glo reagent, centrifuged at 1000 rpm for 1 min, and incubated at room temperature for 40 min. The reaction system was added with 8 μL of kinase assay reagent, centrifuged at 1000 rpm for 1 min and incubated at room temperature for 40 min. The […] was read on Biotek.
(§6) The inhibition rate was calculated according to the following formula: […]
(§7) Lumcmpd: compound fluorescence reading; Lumpositive: average value of the fluorescence reading of positive compound control; Lumvehicle: average value of the fluorescence reading of solvent vehicle control.
(§8) IC50 values were fitted using GraphPad 7.0 based on inhibition rates of compounds at different concentrations.

CDK3/CycE1 = CDK3/CycE1 (Homo sapiens, UniProt Q00526); assay: ADP-Glo kinase assay on CDK enzymatic activity, CDK3/CycE1; conditions: 10 concentrations from 10 μM, 4-fold, 60 min room temperature
Source text: as §1, §2, §3, §4, §5, §6, §7, §8

CDK5/p25NCK = CDK5/p25NCK (Homo sapiens, UniProt Q00535); assay: ADP-Glo kinase assay on CDK enzymatic activity, CDK5/p25NCK; conditions: 10 concentrations from 10 μM, 4-fold, 60 min room temperature
Source text: as §1, §2, §3, §4, §5, §6, §7, §8

CDK1/CycE1 = CDK1/CycE1 (Homo sapiens, UniProt P06493); assay: ADP-Glo kinase assay on CDK enzymatic activity, CDK1/CycE1; conditions: ADP-Glo; 10 concentrations from 10 μM, 4-fold; 60 min room temperature; read-out: CDK1/CycE1/nM (IC50)
Method: as §1, §3, §4, §5, §6, §7, §8

CDK3/CycE1, sequence (Q00526 whole entry, species assumed): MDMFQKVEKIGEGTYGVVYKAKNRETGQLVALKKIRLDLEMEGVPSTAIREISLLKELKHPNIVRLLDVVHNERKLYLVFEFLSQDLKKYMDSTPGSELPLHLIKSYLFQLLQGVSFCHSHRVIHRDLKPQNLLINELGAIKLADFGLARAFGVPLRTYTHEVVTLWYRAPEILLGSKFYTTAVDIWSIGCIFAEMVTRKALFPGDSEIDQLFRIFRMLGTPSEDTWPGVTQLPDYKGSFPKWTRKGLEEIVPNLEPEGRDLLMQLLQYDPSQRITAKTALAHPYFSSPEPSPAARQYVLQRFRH
CDK3/CycE1, sequence (P24864 whole entry partner, species assumed): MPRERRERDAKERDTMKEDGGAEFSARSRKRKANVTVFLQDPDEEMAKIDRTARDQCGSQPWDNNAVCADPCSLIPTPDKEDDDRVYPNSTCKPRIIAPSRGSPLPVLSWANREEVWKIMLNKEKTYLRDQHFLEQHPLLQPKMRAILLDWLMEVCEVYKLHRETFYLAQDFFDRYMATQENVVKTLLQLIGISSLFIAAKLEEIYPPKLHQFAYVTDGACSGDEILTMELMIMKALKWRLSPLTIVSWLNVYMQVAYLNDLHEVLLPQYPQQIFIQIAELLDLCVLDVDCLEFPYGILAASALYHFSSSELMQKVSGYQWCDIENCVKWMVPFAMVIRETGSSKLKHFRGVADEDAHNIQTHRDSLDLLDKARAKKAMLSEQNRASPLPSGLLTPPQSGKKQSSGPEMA
CDK5/p25NCK, sequence (Q00535 whole entry, species assumed): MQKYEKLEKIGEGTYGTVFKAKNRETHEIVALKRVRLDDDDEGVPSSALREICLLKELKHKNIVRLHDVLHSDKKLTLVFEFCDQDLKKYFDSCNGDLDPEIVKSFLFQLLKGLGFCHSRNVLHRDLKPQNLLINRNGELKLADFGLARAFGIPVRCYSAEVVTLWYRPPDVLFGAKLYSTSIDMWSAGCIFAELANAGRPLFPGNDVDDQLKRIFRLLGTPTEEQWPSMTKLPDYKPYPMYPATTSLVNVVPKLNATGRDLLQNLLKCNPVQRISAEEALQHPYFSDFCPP
CDK5/p25NCK, sequence (Q15078 99-307 partner limits assumed, species assumed): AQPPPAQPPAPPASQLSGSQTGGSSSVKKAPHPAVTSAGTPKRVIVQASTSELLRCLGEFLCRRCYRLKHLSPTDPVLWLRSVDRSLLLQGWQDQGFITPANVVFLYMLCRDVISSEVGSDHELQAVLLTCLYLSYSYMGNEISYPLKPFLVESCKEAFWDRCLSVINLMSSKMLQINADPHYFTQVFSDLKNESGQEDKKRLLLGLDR
CDK9/CycT1, sequence (P50750 whole entry): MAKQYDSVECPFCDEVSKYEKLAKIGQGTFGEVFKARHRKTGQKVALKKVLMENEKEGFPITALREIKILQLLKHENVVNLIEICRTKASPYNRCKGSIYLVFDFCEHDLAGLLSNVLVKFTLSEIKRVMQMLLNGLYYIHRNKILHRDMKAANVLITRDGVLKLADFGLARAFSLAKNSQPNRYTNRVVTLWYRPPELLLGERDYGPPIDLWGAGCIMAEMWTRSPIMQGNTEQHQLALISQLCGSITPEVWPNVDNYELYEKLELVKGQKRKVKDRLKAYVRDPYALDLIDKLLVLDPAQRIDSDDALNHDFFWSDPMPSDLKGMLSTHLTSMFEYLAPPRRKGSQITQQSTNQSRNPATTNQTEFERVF
CDK9/CycT1, sequence (O60563 whole entry partner): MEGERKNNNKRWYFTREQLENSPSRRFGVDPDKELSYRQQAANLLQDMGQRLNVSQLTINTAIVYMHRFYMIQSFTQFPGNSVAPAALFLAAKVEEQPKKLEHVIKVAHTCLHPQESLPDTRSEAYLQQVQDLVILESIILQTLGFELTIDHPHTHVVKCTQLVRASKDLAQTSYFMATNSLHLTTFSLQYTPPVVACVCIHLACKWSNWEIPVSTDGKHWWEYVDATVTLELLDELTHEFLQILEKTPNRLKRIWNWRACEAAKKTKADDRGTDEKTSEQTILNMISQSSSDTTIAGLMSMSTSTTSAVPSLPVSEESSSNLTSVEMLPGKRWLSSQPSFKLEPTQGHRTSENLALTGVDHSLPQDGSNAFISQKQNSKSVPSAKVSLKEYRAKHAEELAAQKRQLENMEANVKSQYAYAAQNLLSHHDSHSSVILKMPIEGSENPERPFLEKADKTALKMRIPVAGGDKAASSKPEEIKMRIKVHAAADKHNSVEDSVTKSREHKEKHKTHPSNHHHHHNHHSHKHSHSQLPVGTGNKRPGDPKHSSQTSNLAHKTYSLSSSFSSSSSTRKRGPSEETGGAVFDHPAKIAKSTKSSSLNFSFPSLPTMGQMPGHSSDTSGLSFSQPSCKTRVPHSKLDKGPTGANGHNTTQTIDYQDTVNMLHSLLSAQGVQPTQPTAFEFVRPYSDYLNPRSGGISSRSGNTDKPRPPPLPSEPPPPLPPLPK
CDK1/CycE1, sequence (P06493 whole entry, species assumed): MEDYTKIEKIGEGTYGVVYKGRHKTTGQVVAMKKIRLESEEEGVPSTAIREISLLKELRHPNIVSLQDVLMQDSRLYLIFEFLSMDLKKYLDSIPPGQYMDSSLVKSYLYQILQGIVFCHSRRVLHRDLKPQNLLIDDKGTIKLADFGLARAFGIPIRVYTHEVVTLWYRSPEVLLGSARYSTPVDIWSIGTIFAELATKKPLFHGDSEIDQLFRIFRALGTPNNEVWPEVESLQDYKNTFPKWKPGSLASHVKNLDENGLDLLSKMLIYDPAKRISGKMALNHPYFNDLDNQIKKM
CDK1/CycE1, sequence (P24864 whole entry partner, species assumed): as the sequence (P24864 whole entry partner, species assumed) above

| IC50 (CDK9/CycT1) [nM] | IC50 (CDK2/CycA2) [nM] | IC50 (CDK3/CycE1) [nM] | IC50 (CDK5/p25NCK) [nM] | IC50 (CDK1/CycE1) [nM] | SMILES |
| --- | --- | --- | --- | --- | --- |
| 2 | 110 | 66 | 103 | 83 | CC(C)Nc1nc(C#N)cc2cnc(N[C@H]3CCCNC3)cc12 [Compound 38, (S)-1-(isopropylamino)-7-(piperidin-3-ylamino)-2,6-naphthyridine-3-carbonitrile] |
| 2 | 84 | 278 | 161 | – | CC(C)Nc1nc(C#N)cc2cnc(N[C@@H]3CCCNC3)cc12 [Compound 39, (R)-1-(isopropylamino)-7-(piperidin-3-ylamino)-2,6-naphthyridine-3-carbonitrile] |
| 2 | 13 | 75 | 23 | – | CC(C)Nc1nc(C#N)cc2cnc(N[C@@H]3CNCC(F)(F)C3)cc12 [Compound 43, (S)-7-((5,5-difluoropiperidin-3-yl)amino)-1-(isopropylamino)-2,6-naphthyridine-3-carbonitrile] |
| 2 | 1170 | 288 | 3630 | – | CC(C)Nc1nc(C#N)cc2cnc(N[C@@H]3CN4CCC3CC4)cc12 [Compound 44, (S)-1-(isopropylamino)-7-(quinuclidin-3-ylamino)-2,6-naphthyridine-3-carbonitrile] |
| 2 | 199 | 477 | 266 | – | CCC(CC)Nc1nc(C#N)cc2cnc(N[C@H]3CC[C@H](N)C3)cc12 [Compound 48, 7-(((1S,3S)-3-aminocyclopentyl)amino)-1-(pentan-3-ylamino)-2,6-naphthyridine-3-carbonitrile] |
| 1 | 15 | 14 | 10 | – | CC(C)Nc1nc(C(F)F)cc2cnc(N[C@H]3CCCNC3)cc12 [Compound 54, (S)-3-(difluoromethyl)-N^1-isopropyl-N^7-(piperidin-3-yl)-2,6-naphthyridine-1,7-diamine] |
| 3 | 227 | 124 | 484 | 173 | CC(Nc1nc(C#N)cc2cnc(N[C@H]3CCCNC3)cc12)C(F)(F)F (stereo partly drawn) [Compound 61, 7-(((S)-piperidin-3-yl)amino)-1-((1,1,1-trifluoropropan-2-yl)amino)-2,6-naphthyridine-3-carbonitrile] |
| 3 | 167 | 398 | 294 | 206 | CC(C)Nc1nc(C#N)cc2cnc(N[C@H]3CC[C@H](C)NC3)cc12 [Compound 103, 1-(isopropylamino)-7-(((3S,6S)-6-methylpiperidin-3-yl)amino)-2,6-naphthyridine-3-carbonitrile] |
| 10 | 888 | 550 | 2200 | – | N#Cc1cc2cnc(N[C@H]3CCCNC3)cc2c(N[C@H](CO)c2ccccc2)n1 [Compound 104, 1-(((S)-2-hydroxy-1-phenylethyl)amino)-7-(((S)-piperidin-3-yl)amino)-2,6-naphthyridine-3-carbonitrile] |
| 6 | 388 | 629 | 1530 | 678 | CC(C)Nc1nc(C#N)cc2cnc(N[C@H]3CCCNCC3)nc12 [Compound 131, (S)-2-(azepan-4-ylamino)-8-(isopropylamino)pyrido[3,4-d]pyrimidine-6-carbonitrile] |
| 2 | 600 | 66 | 306 | 90 | CC(C)Nc1nc(C#N)cc2cnc(N[C@H]3CCCCNC3)cc12 [Compound 142, (S)-7-(azepan-3-ylamino)-1-(isopropylamino)-2,6-naphthyridine-3-carbonitrile] |

More lines, now with the values behind:

| SMILES | IC50 (CDK9/CycT1) [nM] | IC50 (CDK2/CycA2) [nM] | IC50 (CDK3/CycE1) [nM] | IC50 (CDK5/p25NCK) [nM] | IC50 (CDK1/CycE1) [nM] |
| --- | --- | --- | --- | --- | --- |
| CC(C)(C)Nc1nc(C#N)cc2cnc(N[C@H]3CC[C@H](O)C3)cc12 [Compound 35, 1-(tert-butylamino)-7-(((1S,3S)-3hydroxycyclopentyl)amino)-2,6-naphthyridine-3-carbonitrile] | 1 | 14 | 35 | 36 | – |
| N#Cc1cc2cnc(N[C@H]3CC[C@H](N)C3)cc2c(NC2CCCC2)n1 [Compound 49, 7-(((1S,3S)-3-aminocyclopentyl)amino)-1-(cyclopentylamino)-2,6-naphthyridine-3-carbonitrile] | 2 | 57 | 105 | 93 | – |
| CC1(Nc2nc(C#N)cc3cnc(N[C@H]4CC[C@H](N)C4)cc23)CC1 [Compound 50, 7-(((1S,3S)-3-aminocyclopentyl)amino)-1-((1-methylcyclopropyl)amino)-2,6-naphthyridine-3-carbonitrile] | 2 | 73 | 208 | 119 | – |
| CC(C)Oc1nc(C#N)cc2cnc(N[C@H]3CC[C@H](N)C3)cc12 [Compound 51, 7-(((1S,3S)-3-aminocyclopentyl)amino)-1-isopropoxy-2,6-naphthyridine-3-carbonitrile] | 1 | 73 | 88 | 142 | – |
| N#Cc1cc2cnc(N[C@H]3CC[C@H](N)C3)cc2c(NCC2(C#N)CCOCC2)n1 [Compound 60, 7-(((1S,3S)-3-aminocyclopentyl)amino)-1-(((4-cyanotetrahydro-2H-pyran-4-yl)methyl)amino)-2,6-naphthyridine-3-carbonitrile] | 29 | 1810 | ≥ 12100 | 8390 | – |
| CC(C)Nc1nc(C#N)cc2cnc(N[C@H]3CCCOC3)nc12 [Compound 116, (S)-8-(isopropylamino)-2-((tetrahydro-2H-pyran-3-yl)amino)pyrido[3,4-d]pyrimidine-6-carbonitrile] | 2 | 29 | 92 | 63 | 114 |
| CC(C)Nc1nc(C#N)cc2cnc(N[C@H]3CC[C@H](O)C3)nc12 [Compound 122, 2-(((1S,3S)-3-hydroxycyclopentyl)amino)-8-(isopropylamino)pyrido[3,4-d]pyrimidine-6-carbonitrile] | 1 | 6 | 8 | 17 | 3 |
| CC(C)Nc1nc(C#N)cc2cnc(N[C@H]3C[C@@H](N)C3)nc12 [Compound 126, 2-(((1s,3s)-3-aminocyclobutyl)amino)-8-(isopropylamino)pyrido[3,4-d]pyrimidine-6-carbonitrile] | 2 | 181 | 287 | 238 | 95 |
| CC(C)Nc1nc(C#N)cc2cnc(N[C@H]3C[C@H](N)C3)nc12 [Compound 127, 2-(((1r,3r)-3-aminocyclobutyl)amino)-8-(isopropylamino)pyrido[3,4-d]pyrimidine-6-carbonitrile] | 1 | 14 | 8 | 46 | 10 |
| CC(C)Nc1nc(C#N)cc2cnc(NC34CC(N)(C3)C4)nc12 [Compound 128, 2-((3-aminobicyclo[1.1.1]pentan-1-yl)amino)-8-(isopropylamino)pyrido[3,4-d]pyrimidine-6-carbonitrile] | 2 | 54 | 34 | 65 | 43 |
| CC(C)Nc1nc(C#N)cc2cnc(NC3CC4(CNC4)C3)nc12 [Compound 130, 2-((2-azaspiro[3.3]heptan-6-yl)amino)-8-(isopropylamino)pyrido[3,4-d]pyrimidine-6-carbonitrile] | 2 | 74 | 32 | 447 | 25 |
| CC(C)Nc1nc(C#N)cc2cnc(N[C@H]3CC[C@H](N)CC3)nc12 [Compound 136, 2-(((1r,4r)-4-aminocyclohexyl)amino)-8-(isopropylamino)pyrido[3,4-d]pyrimidine-6-carbonitrile] | 2 | 13 | 27 | 116 | 315 |
